# Paper PMC9127750, “Structure-based design of CDC42 effector interaction inhibitors for the treatment of cancer” (Cell reports, 2022)
# Several values for one entry are separate records, joined by “and”; a condition that tells them apart may be missing. Equal entries are not always repeated.
# System: WM3248 melanoma cells, 486 antibodies
# Experiment: Reverse phase protein arrays (RPPA)
# Format: cell-based, Human
# Excerpt: Pellets were snap frozen in liquid nitrogen and shipped to MD Anderson Cancer Center core RPPA facility for RPPA analysis (Table S5). Three biological replicates for each sample were generated.
# Nomenclatures on the RPPA heatmaps: name_of_antibody.species_of_antibody.status_of_antibody. V - antibody validated; C - validation of antibody in progress; Q - antibody nonspecific; E – under evaluation; antibodies raised in M - mouse, G - goat, R - rabbit, or T - rat.
smiles,measurement,setting,value
"CN(C)c1cccc(Nc2cc(-c3ccccc3)nc(C3CCNCC3)n2)c1 [ARN22089, N1,N1-dimethyl-N3-(6-phenyl-2-(piperidin-4-yl)pyrimidin-4-yl)benzene-1,3-diamine]",c.Jun_pS73.R.V normalized signal,Norm_20 Average,0.769
same,c.Kit.R.V normalized signal,Norm_20 Average,1.333
same,c.Met_pY1234_Y1235.R.V normalized signal,Norm_20 Average,1.008
same,c.Myc.R.C normalized signal,Norm_20 Average,0.930
same,cGAS.R.V normalized signal,Norm_20 Average,0.995
same,cdc2_pY15.R.C normalized signal,Norm_20 Average,0.940
same,cdc25C.R.V normalized signal,Norm_20 Average,0.832
same,C.Raf.R.C normalized signal,Norm_20 replicates,0.926 and 0.909 and 1.022
same,C.Raf_pS338.R.V normalized signal,Norm_20 replicates,1.047 and 0.977 and 1.202
same,CA9.R.C normalized signal,Norm_20 replicates,0.834 and 0.857 and 0.980
same,CD2.M.C normalized signal,Norm_20 replicates,0.856 and 0.882 and 0.876
same,CD4.R.V normalized signal,Norm_20 replicates,1.114 and 0.892 and 1.008
same,CD5.M.C normalized signal,Norm_20 replicates,0.915 and 0.968 and 0.950
same,CD20.R.C normalized signal,Norm_20 replicates,1.024 and 1.514 and 1.531
same,CD26.R.V normalized signal,Norm_20 replicates,1.033 and 0.940 and 1.351
same,CD29.M.V normalized signal,Norm_20 replicates,0.857 and 0.910 and 0.908
same,CD31.M.V normalized signal,Norm_20 replicates,0.884 and 0.896
same,CD38.R.C normalized signal,Norm_20 replicates,1.108 and 1.163
same,CD44.R.C normalized signal,Norm_20 replicates,0.959 and 1.005
same,CD45.M.V normalized signal,Norm_20 replicates,0.835 and 0.934
same,CD49b.M.V normalized signal,Norm_20 replicates,0.952 and 1.078 and 1.005
same,CD68.M.C normalized signal,Norm_20 replicates,0.919 and 0.910
same,CD74.M.V normalized signal,Norm_20 replicates,0.908 and 0.967 and 0.901
same,CD134.R.V normalized signal,Norm_20 replicates,0.960 and 0.966
same,CD171.M.V normalized signal,Norm_20 replicates,0.652 and 0.837 and 0.648
same,CDK1_pT14.R.C normalized signal,Norm_20 replicates,1.055 and 0.710 and 1.260
same,CDK9.R.V normalized signal,Norm_20 replicates,0.996 and 0.856 and 0.946
same,CDKN2A.R.C normalized signal,Norm_20 replicates,0.854 and 0.981 and 0.927
same,CDT1.R.V normalized signal,Norm_20 replicates,0.785 and 0.945 and 0.841
same,CENP.A.R.V normalized signal,Norm_20 replicates,0.821 and 2.735 and 1.018
same,CHD1L.R.V normalized signal,Norm_20 replicates,0.858 and 0.933 and 1.056
same,CIITA.R.C normalized signal,Norm_20 replicates,0.943 and 1.115 and 1.149
same,COG3.R.V normalized signal,Norm_20 replicates,0.982 and 0.987 and 1.164
same,CRABP1.R.C normalized signal,Norm_20 replicates,0.873 and 1.063
same,CRABP2.R.V normalized signal,Norm_20 replicates,0.668 and 1.048 and 0.808
same,CREB_pS133.R.C normalized signal,Norm_20 replicates,0.993 and 1.115 and 1.463
same,CSK.R.C normalized signal,Norm_20 replicates,0.890 and 0.821 and 1.057
same,Calnexin.R.V normalized signal,Norm_20 replicates,0.950 and 0.927 and 0.903
same,Caspase.3.cleaved.R.C normalized signal,Norm_20 replicates,1.050 and 1.052 and 0.937
same,Caspase.7.cleaved..R.C normalized signal,Norm_20 replicates,1.145 and 0.913 and 0.981
same,Caspase.8.M.Q normalized signal,Norm_20 replicates,0.921 and 1.010 and 0.953
same,Caspase.8.cleaved.R.C normalized signal,Norm_20 replicates,0.981 and 0.904 and 0.986
same,Caveolin.1.R.V normalized signal,Norm_20 replicates,0.827 and 0.896 and 0.874
same,Cdc6.R.V normalized signal,Norm_20 replicates,1.058 and 0.691 and 0.803
same,Cdc42.R.C normalized signal,Norm_20 replicates,0.945 and 1.025 and 1.019
same,Chk1.M.C normalized signal,Norm_20 replicates,0.656 and 0.821 and 0.882
same,Chk1_pS296.R.V normalized signal,Norm_20 replicates,0.970 and 0.828 and 1.051
same,Chk1_pS345.R.C normalized signal,Norm_20 replicates,1.119 and 1.167 and 1.225
same,Chk2.M.V normalized signal,Norm_20 replicates,0.658 and 0.864 and 1.104
same,Chk2_pT68.R.C normalized signal,Norm_20 replicates,0.997 and 1.290 and 1.096
same,Claudin.7.R.V normalized signal,Norm_20 replicates,0.881 and 1.747 and 1.050
same,Collagen.VI.R.V normalized signal,Norm_20 replicates,1.201 and 0.989 and 0.848
same,Complex.II.Subunit.M.V normalized signal,Norm_20 replicates,0.922 and 0.878 and 1.206
same,Connexin.43.R.C normalized signal,Norm_20 replicates,0.931 and 1.019
same,Coup.TFII.R.C normalized signal,Norm_20 replicates,1.109 and 0.920 and 0.985
same,Cox2.R.C normalized signal,Norm_20 replicates,1.356 and 1.253 and 1.438
same,Cox.IV.R.V normalized signal,Norm_20 replicates,1.130 and 0.864 and 0.981
same,Creb.R.C normalized signal,Norm_20 replicates,0.982 and 1.104
same,CtIP.R.V normalized signal,Norm_20 replicates,0.991 and 0.925 and 0.970
same,Cyclin.B1.R.V normalized signal,Norm_20 replicates,0.884 and 0.735 and 1.285
same,Cyclin.D1.R.C normalized signal,Norm_20 replicates,0.990 and 1.056 and 0.913
same,Cyclin.D3.M.V normalized signal,Norm_20 replicates,0.612 and 0.725 and 0.909
same,Cyclin.E1.R.V normalized signal,Norm_20 replicates,0.878 and 0.955 and 0.872
same,Cyclophilin.F.M.V normalized signal,Norm_20 replicates,0.906 and 0.884 and 1.010
same,D.a.Tubulin.R.V normalized signal,Norm_20 replicates,1.030 and 0.992
same,DAPK1_pS308.M.C normalized signal,Norm_20 replicates,1.481 and 2.154 and 2.593
same,DAPK2.R.C normalized signal,Norm_20 replicates,0.964 and 1.008
same,DDB.1.R.V normalized signal,Norm_20 replicates,1.193 and 0.735 and 0.837
same,DDR1.R.V normalized signal,Norm_20 replicates,0.952 and 1.004 and 1.031
same,DDR1_pY513.R.C normalized signal,Norm_20 replicates,1.061 and 1.271 and 0.913
same,DJ1.R.V normalized signal,Norm_20 replicates,1.006 and 0.828 and 0.954
same,DM.Histone.H3.R.V normalized signal,Norm_20 replicates,3.935 and 0.881
same,DM.K9.Histone.H3.M.V normalized signal,Norm_20 replicates,2.137 and 0.933
same,DNA.Ligase.IV.R.C normalized signal,Norm_20 replicates,0.747 and 1.076
same,DNA_POLG.R.V normalized signal,Norm_20 replicates,1.105 and 1.113 and 1.034
same,c.Jun_pS73.R.V normalized signal,Norm_20 replicates,0.847 and 0.671 and 0.789
same,c.Kit.R.V normalized signal,Norm_20 replicates,1.304 and 1.335 and 1.361
same,c.Met_pY1234_Y1235.R.V normalized signal,Norm_20 replicates,1.007 and 1.003 and 1.014
same,c.Myc.R.C normalized signal,Norm_20 replicates,0.879 and 0.953 and 0.957
same,cGAS.R.V normalized signal,Norm_20 replicates,0.887 and 1.171 and 0.926
same,cdc2_pY15.R.C normalized signal,Norm_20 replicates,0.878 and 0.795 and 1.146
same,cdc25C.R.V normalized signal,Norm_20 replicates,0.758 and 0.751 and 0.986
